Converted amounts (≈) assume the structure as drawn.
Columns and labels:
Candida albicans = assay: Antifungal activity against Candida albicans ATCC 10231 after 24 to 48 hrs by broth microdilution method; assay type: functional
Candida parapsilosis = assay: Antifungal activity against Candida parapsilosis ATCC 22019 after 24 to 48 hrs by broth microdilution method; assay type: functional; conditions: Lodderomyces parapsilosis
Pichia kudriavzevii [1] = assay: Antifungal activity against Candida krusei ATCC 6258 after 24 to 48 hrs by broth microdilution method; assay type: functional
Candida tropicalis = assay: Antifungal activity against Candida tropicalis ATCC 750 after 24 to 48 hrs by broth microdilution method; assay type: functional
Staphylococcus aureus = assay: Antibacterial activity against Staphylococcus aureus ATCC 29213 after 24 hrs by broth microdilution method; assay type: functional; conditions: ATCC 29213, 24 h
Enterococcus faecalis = assay: Antibacterial activity against Enterococcus faecalis ATCC 29212 after 24 hrs by broth microdilution method; assay type: functional; conditions: ATCC 29212, 24 h
Escherichia coli = assay: Antibacterial activity against Escherichia coli ATCC 25922 after 24 hrs by broth microdilution method; assay type: functional; conditions: ATCC 25922, 24 h
Pichia kudriavzevii [2] = assay: Ratio of fluconazole MIC to compound MIC for Candida krusei ATCC 6258; assay type: functional
THP-1 [3] = assay: Cytotoxicity against human THP1 cells at 4 times MIC after 24 hrs by trypan blue exclusion assay; assay type: cell-based; conditions: thp-1, 24 h
THP-1 [4] = assay: Cytotoxicity against human THP1 cells assessed as release of lactate dehydrogenase at 4 times MIC after 24 hrs; assay type: cell-based; conditions: thp-1, 24 h
THP-1 [5] = assay: Cytotoxicity against human THP1 cells assessed as release of lactate dehydrogenase at 10 times MIC after 24 hrs; assay type: cell-based; conditions: thp-1, 24 h

SMILES | MIC (Candida albicans) [µg/mL] | MIC (Candida parapsilosis) [µg/mL] | MIC (Pichia kudriavzevii [1]) [µg/mL] | MIC (Candida tropicalis) [µg/mL] | MIC (Staphylococcus aureus) [µg/mL] | MIC (Enterococcus faecalis) [µg/mL] | MIC (Escherichia coli) [µg/mL] | Ratio (Pichia kudriavzevii [2]) | Activity (THP-1 [3]) | Activity (THP-1 [4]) | Activity (THP-1 [5])
Nc1nc2ccc(Oc3ccccc3)cc2s1 | 128 (≈ 528 µM) | 16 (≈ 66 µM) | 32 (≈ 132 µM) | 32 (≈ 132 µM) | > 512 | > 512 | > 512 | – | – | – | –
Nc1nc2ccc(OCCc3ccccc3)cc2s1 | 8 (≈ 29.6 µM) | 16 (≈ 59.2 µM) | 16 (≈ 59.2 µM) | 32 (≈ 118 µM) | > 512 | 128 (≈ 473 µM) | > 512 | 2 | – | – | –
Nc1nc2ccc(OCCCc3ccccc3)cc2s1 | 32 (≈ 113 µM) | 16 (≈ 56.3 µM) | 16 (≈ 56.3 µM) | 16 (≈ 56.3 µM) | 512 (≈ 1800 µM) | 128 (≈ 450 µM) | > 512 | 2 | – | – | –
Nc1nc2ccc(OCCCCc3ccccc3)cc2s1 | 512 (≈ 1720 µM) | 128 (≈ 429 µM) | > 512 | 512 (≈ 1720 µM) | 512 (≈ 1720 µM) | 256 (≈ 858 µM) | > 512 | – | – | – | –
Nc1nc2ccc(COc3ccccc3)cc2s1 | 32 (≈ 125 µM) | 16 (≈ 62.4 µM) | 64 (≈ 250 µM) | 16 (≈ 62.4 µM) | 256 (≈ 999 µM) | 128 (≈ 499 µM) | > 512 | – | – | – | –
Nc1nc2ccc(OCc3ccc(Cl)cc3)cc2s1 | 4 (≈ 13.8 µM) | 8 (≈ 27.5 µM) | 64 (≈ 220 µM) | 4 (≈ 13.8 µM) | 256 (≈ 880 µM) | 256 (≈ 880 µM) | > 512 | – | Toxic | Toxic | –
Nc1nc2ccc(Oc3ccc(Cl)cc3)cc2s1 | 8 (≈ 28.9 µM) | 4 (≈ 14.5 µM) | 32 (≈ 116 µM) | 8 (≈ 28.9 µM) | 512 (≈ 1850 µM) | 512 (≈ 1850 µM) | > 512 | – | – | – | Non-toxic
Nc1nc2ccc(OCc3ccccc3)cc2s1 | 8 (≈ 31.2 µM) | 8 (≈ 31.2 µM) | 64 (≈ 250 µM) | 8 (≈ 31.2 µM) | > 512 | > 512 | > 512 | – | – | – | –
Nc1nc2ccc(C(F)(F)F)cc2s1 | 16 (≈ 73.3 µM) | 64 (≈ 293 µM) | 64 (≈ 293 µM) | 64 (≈ 293 µM) | 256 (≈ 1170 µM) | 256 (≈ 1170 µM) | > 512 | – | – | – | –
CCOc1ccc2nc(N)sc2c1 | 128 (≈ 659 µM) | 128 (≈ 659 µM) | 256 (≈ 1320 µM) | 128 (≈ 659 µM) | 512 (≈ 2640 µM) | 512 (≈ 2640 µM) | > 512 | – | – | – | –
COc1ccc2nc(N)sc2c1 | 256 (≈ 1420 µM) | 256 (≈ 1420 µM) | 512 (≈ 2840 µM) | 256 (≈ 1420 µM) | 128 (≈ 710 µM) | 128 (≈ 710 µM) | > 512 | – | – | – | –
OC(Cn1cncn1)(Cn1cncn1)c1ccc(F)cc1F [FLUCONAZOLE] | 2 (≈ 6.53 µM) | 2 (≈ 6.53 µM) | 32 (≈ 104 µM) | 4 (≈ 13.1 µM) | – | – | – | – | – | – | –
CCn1cc(C(=O)O)c(=O)c2cc(F)c(N3CCNCC3)cc21 [NORFLOXACIN] | – | – | – | – | 0.5 (≈ 1.57 µM) | 4 (≈ 12.5 µM) | 0.03 (≈ 0.0939 µM) | – | – | – | –
Nc1nc2ccc(OC(F)(F)F)cc2s1 [RILUZOLE] | 64 (≈ 273 µM) | 64 (≈ 273 µM) | 128 (≈ 547 µM) | 128 (≈ 547 µM) | 256 (≈ 1090 µM) | 512 (≈ 2190 µM) | 512 (≈ 2190 µM) | – | – | – | –
